These are literature values, as cited in paper PMC12308805, “Ultrahigh-Throughput Virtual Screening Strategies against PPI Targets: A Case Study of STAT Inhibitors” (Journal of Chemical Information and Modeling, 2025).

The first data set deals with STAT3. Conditions: sheet 6QHD_actives_decoys; retrospective screening set for STAT3 SH2 domain (PDB 6QHD); […]; ref DUD-E; cited from earlier work.
On to `NCCNC(=O)Cc1ccc(NC(=O)Cc2ccc(Nc3ncnc4c3ncn4[C@@H]3O[C@H](CO)[C@@H](O)[C@H]3O)cc2)cc1` [Decoy655], for which the Type result is on record as “Inactive (Decoy)”.

For `O=C(Nc1ccc([N+](=O)[O-])cc1[N+](=O)[O-])[C@@](F)(OC(F)(F)[C@@](F)(OC(F)(F)C(F)(F)C(F)(F)F)C(F)(F)F)C(F)(F)F` [Decoy658], the Type entry is “Inactive (Decoy)”. In the case of `Cc1ccc(N2C(=O)NC(=O)/C(=C\c3cc(C)n(-c4cc(C(=O)O)cc(C(=O)O)c4)c3C)C2=O)cc1` [Decoy670], the Type result is “Inactive (Decoy)”.

On to `Cc1cc(C(=O)Nc2ccc(S(=O)(=O)Nc3ncccn3)cc2)cc(S(=O)(=O)N(C)C)c1C` [Decoy675], for which the Type result is “Inactive (Decoy)”. On to `O=c1c(C[C@H](O)CN2CCOCC2)c(O)n(C[C@@H](O)CN2CCOCC2)c(=O)n1C[C@H](O)CN1CCOCC1` [Decoy679], for which the Type result is “Inactive (Decoy)”. `O=c1c(C[C@H](O)CN2CCOCC2)c(O)n(C[C@H](O)CN2CCOCC2)c(=O)n1C[C@H](O)CN1CCOCC1` [Decoy680]: the Type entry is “Inactive (Decoy)”. `CSc1cccc(NC(=O)C[C@@H]2SC(N[C@H](c3cccs3)c3c(O)[nH]c(=O)[nH]c3=O)=NC2=O)c1` [Decoy681]: the Type entry is given as “Inactive (Decoy)”. Take `C=C(CO[C@H]1O[C@@H](CO[C@H]2OC[C@@H](O)[C@@H](O)[C@H]2O)[C@@H](O)[C@@H](O)[C@H]1O)[C@H]1Cc2c(ccc3c2O[C@@H]2COc4cc(OC)c(OC)cc4[C@H]2C3=O)O1` [Decoy686]: the Type result is listed as “Inactive (Decoy)”.

In the case of `COc1ccc(CCN2C(=O)NC(O)=C3C2=NC(=O)[C@@]3(NS(=O)(=O)c2nnc(NC(C)=O)s2)C(F)(F)F)cc1OC` [Decoy687], the Type entry is listed as “Inactive (Decoy)”.

The same data set, now with this note: sheet 6QHD_actives_decoys; retrospective screening set for STAT3 SH2 domain (PDB 6QHD); decoys generated with DUD-E and presumed inactive, not tested; ref DUD-E; cited from earlier work.
Regarding `CC[C@H](C)[C@@H](NC(=O)CNC(=O)CCc1c(C)c2cc3c(C)coc3c(C)c2oc1=O)C(=O)O` [Decoy650], the Type result is “Inactive (Decoy)”. Turning to `COc1cc(NC(=S)/N=C(\NCCc2c[nH]cn2)Nc2nc(C)cc(C)n2)c(OC)cc1Cl` [Decoy651], the Type result is reported as “Inactive (Decoy)”. In the case of `O=C(O)CN(CC(=O)O)CC1=C[C@H]2C(=CC1=O)Oc1cc(O)c(CN(CC(=O)O)CC(=O)O)cc1[C@@]21OC(=O)c2ccccc21` [Decoy652], the Type entry was “Inactive (Decoy)”.

Turning to `Cc1ccc(S(=O)(=O)NCCN(CCN(CCNS(=O)(=O)c2ccc(C)cc2)S(=O)(=O)c2ccc(C)cc2)S(=O)(=O)c2ccc(C)cc2)cc1` [Decoy653], the Type result was “Inactive (Decoy)”. `CCOC(=O)c1sc(Nc2ccc(NC(=O)C[C@@H](NCCOC)C(=O)O)cc2)nc1C` [Decoy654]: the Type entry is reported as “Inactive (Decoy)”. For `O=C(NCCCCCCNC(=O)N(CCO)[C@H]1CCS(=O)(=O)C1)N(CCO)[C@@H]1CCS(=O)(=O)C1` [Decoy656], the Type entry is “Inactive (Decoy)”. `CC[C@@H](O)[C@@](C)(O)/C=C(\C)C(=O)[C@H](C)C[C@@](C)(OC)[C@H](O[C@@H]1O[C@H](C)C[C@H](N(C)C)[C@H]1O)[C@@H](C)[C@H](O[C@H]1C[C@@](C)(OC)[C@@H](O)[C@H](C)O1)[C@@H](C)C(=O)O` [Decoy657]: the Type result was “Inactive (Decoy)”. As for `COc1cc(NS(=O)(=O)c2ccc(NC(=S)NC(=O)/C=C/c3cccc4ccccc34)cc2)ncn1` [Decoy659], the Type entry was “Inactive (Decoy)”.

For `CC(=O)O[C@@H]1[C@@H](O)[C@@H](O[C@@H](/C=N\N2CCOCC2)[C@@H](CO)O[C@H](O)/C=N/N2CCOCC2)O[C@@H](CO)[C@H]1O` [Decoy660], the Type result was “Inactive (Decoy)”. On to `COc1ccc(-c2cc(=O)c3c(O)c(OC)c(O[C@@H]4O[C@H](CO[C@@H]5O[C@@H](C)[C@H](O)[C@@H](O)[C@H]5O)[C@@H](O)[C@H](O)[C@H]4O)cc3o2)cc1` [Decoy661], for which the Type entry is on record as “Inactive (Decoy)”. Consider `C=C[C@](C)(O)CC/C=C(\C)C(=O)OC[C@H]1O[C@@H](O[C@@](C)(C=C)CC/C=C(\C)C(=O)O)[C@H](O)[C@@H](OC(=O)/C(C)=C/CC[C@](C)(O)C=C)[C@@H]1O` [Decoy662], for which the Type result is reported as “Inactive (Decoy)”. For the molecule `COCCN(C/C(O)=N/c1nc(-c2ccc(Cl)cc2)cn1-c1ccc(OC)cc1)C(=O)C1CCCC1` [Decoy663], the Type result is on record as “Inactive (Decoy)”. In the case of `CC(=O)N[C@H]1[C@H]([C@H](O)[C@H](O)CO)O[C@@](O[C@H]2[C@@H](O)[C@@H](CO)O[C@@H](O[C@@H]([C@H](O)[C@@H](O)C=O)[C@H](O)CO)[C@@H]2O)(C(=O)O)C[C@@H]1O` [Decoy664], the Type result is recorded as “Inactive (Decoy)”. Consider `COc1ccc(C(=O)Nc2ccc(S(=O)(=O)c3ccc(NC(=O)c4ccc(OC)c(OC)c4)cc3)cc2)cc1OC` [Decoy665], for which the Type result is recorded as “Inactive (Decoy)”.

`CN(Cc1cnc2nc(N)nc(N)c2n1)c1ccc(C(=O)N[C@H](CCC(=O)NCCNC(=O)CCCC[C@@H]2SC[C@@H]3NC(=O)N[C@@H]32)C(=O)O)cc1` [Decoy666]: the Type entry is reported as “Inactive (Decoy)”. For the molecule `[H]/N=C(N/C(N)=N\c1nc(C)c2cc(OC)ccc2n1)\C(C(=O)c1ccccc1)=C(/O)OCC` [Decoy667], the Type entry was “Inactive (Decoy)”.

As for `O=C(Nc1ccc(S(=O)(=O)Nc2ncccn2)cc1)c1cccc(C(=O)Nc2ccc(S(=O)(=O)Nc3ncccn3)cc2)n1` [Decoy668], the Type entry is “Inactive (Decoy)”.

On to `COC(=O)c1ccc(S(=O)(=O)N(CCCO)Cc2cc3cc4c(cc3[nH]c2=O)OCCO4)cc1` [Decoy669], for which the Type result is given as “Inactive (Decoy)”. For `CCOC(=O)c1c(NC(=O)c2ccc([N+](=O)[O-])cc2)sc2c(OCCN(CC)CC)c(Br)ccc12` [Decoy671], the Type result is “Inactive (Decoy)”. Take `Nc1cnn([C@@H]2O[C@@H](COC(=O)c3ccccc3)[C@H](OC(=O)c3ccccc3)[C@@H]2OC(=O)c2ccccc2)c(=O)n1` [Decoy672]: the Type result was “Inactive (Decoy)”.

For `CCOC(=O)C(Sc1nc(N)c(NC(=O)c2ccc(Br)o2)c(=O)[nH]1)C(=O)OCC` [Decoy673], the Type result was “Inactive (Decoy)”.

Turning to `COc1cc([C@H]2C(C(=O)c3nc4c(C)cccn4c3C)=C(O)C(=O)N2CCCN2CCOCC2)ccc1O` [Decoy674], the Type result is reported as “Inactive (Decoy)”. As to `COc1cc(/C=N/Nc2nc(SCC(=O)Nc3cc(F)ccc3C)n[nH]2)cc(OC)c1OC` [Decoy676], the Type entry was “Inactive (Decoy)”.

As to `CCOC(=O)c1ccc(N2C(=O)[C@@H](CC(=O)Nc3ccc(OCC)cc3)N(CCc3ccncc3)C2=S)cc1` [Decoy677], the Type entry is “Inactive (Decoy)”. For the molecule `COc1ccc(Cl)cc1N/C(N)=N\c1nc(CSc2nnnn2-c2ccccc2)cc(=O)[nH]1` [Decoy678], the Type entry is listed as “Inactive (Decoy)”.

As to `CCCC[C@@]1(c2ccc(F)cc2)NC(=O)N(CC(=O)Nc2ccc(S(=O)(=O)N(CC)CC)cc2)C1=O` [Decoy682], the Type entry is “Inactive (Decoy)”. As to `Cc1ccc(S(=O)(=O)n2cc(/C=N\N=C3/NC(=O)[C@H](CC(=O)O)S3)c3ccccc32)cc1` [Decoy683], the Type entry was “Inactive (Decoy)”. Consider `CCN(CC)S(=O)(=O)c1ccc(NC(=O)CSc2n[nH]c(NN=C3CCCC3)n2)cc1` [Decoy684], for which the Type result is “Inactive (Decoy)”. For the molecule `OC[C@@]1(O)CO[C@H](OC[C@H]2O[C@@H](O[C@H](CCCCc3ccc(O)cc3)CCc3ccc(O)cc3)[C@H](O[C@H]3OC[C@](O)(CO)[C@H]3O)[C@@H](O)[C@@H]2O)[C@@H]1O` [Decoy685], the Type result is on record as “Inactive (Decoy)”.
